A short description of data set [1]: Aqueous solubility in 0.01 M PBS, high throughput UV method. The class given is physicochemical. As to conditions: aqueous phosphate buffer, aqueous buffer; sodium phosphate buffer 0.01 M, pH 7.4, 22 ± 2 °C; mean ± SD. The source says:
(§1) Initially, we designed and synthesised seven compounds—9a and 12a1–12a6—and evaluated the anticancer activity and aqueous solubility. We evaluated the cytotoxic effects of these stilbene nitrile analogues against a panel of four human cancer cell lines (HCT-116, BEL-7402, MCF-7 and AGS) and two human non-cancerous normal cell lines (L-02 and MCF-10A), using CA-4 as a control. The compounds were screened for aqueous solubility in 0.01 M PBS using a high throughput UV method. […] It is possible that the size of the nitrogen heterocycle had little effect on the activity of these compounds. […] The aqueous solubility of all the compounds 12a1–12a6 was higher than that of 9a, particularly that of 12a1 and 12a2 containing piperazine rings. […] Of the six compounds with improved aqueous solubility, 12a1 had the best activity.
The aqueous solubility was determined as a previously reported procedure. Put simply, a certain amount of powdered compound was placed in a 2 mL centrifuge tube and mixed with an appropriate volume of aqueous phosphate buffer (10 mM, pH 7.4) to make the whole system supersaturated. The mixtures were sonicated (KQ5200DE numerical control ultrasonic cleaner, Kunshan Ultrasonic Instrument Co., Ltd., SuZhou, China) for 20 min. After sonication, the mixture was allowed to equilibrate at RT (22 ± 2 °C) for 1.5 h with vortex shaking (1200 rpm). Then centrifuged at 3000 rpm for 15 min (1-14k, sigma, Darmstadt, Germany), the supernatant was filtered with a 0.22 µM filter membrane. And then, take 150 µL of filtrate and add it to 96-well UV plate with triplicate. Draw 150 μL of blank solution was added into plate as blank control. The 96-well UV plate prepared above was read on a Synergy HTX Multifunctional Microplate Reader (BioTek, Vermont, USA) at 294 nm. The absorbance of the sample was corrected according to the UV response of the sample and blank solution, and the corrected UV response values were used for solubility calculations by bringing into the standard curve of the compound. […]
1.5. Solubility Assessment
The aqueous solubility was determined as previously reported using the high throughput solubility screens procedure published by Bruno Bard et al [9. 10]. Put simply, a certain amount of powdered compound was placed in a 2 ml centrifuge tube and mixed with an appropriate volume of aqueous phosphate buffer (0.01 M, pH 7.4) to make the whole system supersaturated. The mixtures were sonicated (KQ5200DE numerical control ultrasonic cleaner, Kunshan Ultrasonic Instrument Co., Ltd., China) for 20 min. After sonication, the mixture was allowed to equilibrate at room temperature (22 ± 2°C) for 1.5 h with vortex shaking (1200 rpm). Then the centrifuge tube was put into the centrifuge (1-14k, sigma, Germany), centrifuged with 3000 rpm for 15 minutes, 0.22 µM filter membrane filtration supernatant, then take 150 µl filtrate and add it to 96-well UV plate, with three well for each compound. Draw 150 μL blank solution were added into 96 well-plate as blank control. The 96-well UV […]
plate prepared above was read on a SynergyHTX Multifunctional microplate reader (BioTek, USA) at 338 nm (compounds 12a-12d and 15-20) or 370 nm (compounds 9a-d). The absorbance of the sample was corrected according to the UV response of the sample and blank solution, and the corrected UV responses value were used for solubility calculations by bring into the standard curve of the compound. […]

For data set [2], the system named is HCT-116 colorectal cancer cell. The experiment in a line: MTT cell growth inhibition assay, HCT-116 colorectal cancer cells. The class given is cell-based, human. To be noted: Homo sapiens, HCT-116; MTT; mean ± SD of three experiments.
Text: as §1
All human cell lines were used in this study. AGS gastric cancer cell, BEL-7402 liver cancer cell, HCT-116 colorectal cancer cell, L-02 normal liver cell, MCF-7 breast cancer cell, and MCF-10A normal breast cell were initially purchased from American Type Culture Collection (ATCC, Manassas, VA, USA). RPMI-1640 media, DMEM and FBS, were provided by Gibco Company. The cells were maintained in DMEM or RPMI-1640, supplemented with 10% FBS, 100 IU/mL penicillin and […] streptomycin, and at 37 °C in a humidified atmosphere containing 5% CO2.
The experiment was carried out according to the method of reference.

Experimental findings from publication PMC9963121, “Development of Combretastatin A-4 Analogues as Potential Anticancer Agents with Improved Aqueous Solubility” (Molecules, 2023) are described below.

A word on the thermodynamic solubility: it is solubility found after equilibrating the solid with the medium. The IC50 is the concentration needed to halve the response being measured. In the case of `COc1cc(/C(C#N)=C/c2ccc(NC(=O)CN3CCN(C)CC3)cc2)cc(OC)c1OC` [12a1], the thermodynamic solubility at 1.5 h in data set [1] stood at 18.2 ± 0.619 mg/mL. Moreover, the midpoint of inhibition in data set [2], the IC50, lay at 2.44 ± 0.29 µM.
